# ChEMBL document CHEMBL3616462, “Synthesis and antiviral activity of maleopimaric and quinopimaric acids' derivatives” (Bioorg Med Chem, 2015)
# Columns and labels:
# [1] = Selectivity index, ratio of CC50 for Influenza A virus (A/California/07/2009(H1N1)) infected MDCK cells to EC50 for antiviral activity against Influenza A virus H1N1 (A/California/07/2009(H1N1)) infected in MDCK cells; assay type: toxicity, cell-based; settings: dog; read-out: Ratio CC50/EC50
# [2] = Antiviral activity against Influenza A virus (A/California/07/2009(H1N1)) infected in MDCK cells; assay type: functional, cell-based
# [3] = tested on: Influenza B virus; test: Antiviral activity against Influenza B virus (B/Florida/4/2006) in MDCK cells; assay type: functional, cell-based; settings: B/Florida/4/2006, MDCK
# [4] = Cytotoxicity against Influenza A virus (A/Viet Nam/1203/2004(H5N1)) infected MDCK cells; assay type: cell-based, Canis lupus familiaris; settings: dog
# [5] = Cytotoxicity against Influenza A virus (A/California/07/2009(H1N1)) infected MDCK cells; assay type: cell-based, Canis lupus familiaris; settings: dog
# [6] = Antiviral activity against Influenza A virus (A/Viet Nam/1203/2004(H5N1)) infected in MDCK cells; assay type: functional, cell-based
# [7] = Cytotoxicity against Influenza A virus (A/Brisbane/10/2007(H3N2)) infected MDCK cells; assay type: cell-based, Canis lupus familiaris; settings: dog
# [8] = Cytotoxicity against Influenza B virus (B/Florida/4/2006) infected MDCK cells; assay type: cell-based, Canis lupus familiaris; settings: dog
# [9] = Antiviral activity against Influenza A virus (A/Brisbane/10/2007(H3N2)) infected in MDCK cells; assay type: functional, cell-based
# [10] = Selectivity index, ratio of CC50 for Influenza A virus (A/Brisbane/10/2007(H3N2)) infected MDCK cells to EC50 for antiviral activity against Influenza A virus (A/Brisbane/10/2007(H3N2)); assay type: toxicity, cell-based; settings: dog; read-out: Ratio CC50/EC50
SMILES,selectivity ratio [1],EC50 [2],EC50 [3],CC50 [4],CC50 [5],EC50 [6],CC50 [7],CC50 [8],EC50 [9],selectivity ratio [10]
COC(=O)[C@]1(C)CCC[C@]2(C)[C@H]3C[C@H]4C(C(C)C)=C[C@]3(CC[C@H]21)[C@@H]1/C(=N/O)CCC(=O)[C@@H]14,1,31 µM,> 2.4 µM,1.7 µM,31 µM,> 1.7 µM,13 µM,2.4 µM,> 13 µM,–
COC(=O)[C@]1(C)CCC[C@]2(C)[C@H]3C[C@H]4C(C(C)C)=C[C@]3(CC[C@H]21)[C@H]1[C@@H]4[C@@H](OC(=O)/C=C/c2ccccc2)CC[C@@H]1OC(=O)C=Cc1ccccc1,–,> 17 µM,> 9.3 µM,8.2 µM,17 µM,> 8.2 µM,4 µM,9.3 µM,> 4 µM,–
COC(=O)[C@]1(C)CCC[C@]2(C)[C@H]3C[C@H]4C(C(C)C)=C[C@]3(CC[C@H]21)[C@@H]1C(=O)C=CC(=O)[C@@H]14,–,> 5.5 µM,> 2.9 µM,2.9 µM,5.5 µM,> 2.9 µM,3.9 µM,2.9 µM,3.2 µM,1.2
COC(=O)[C@]1(C)CCC[C@]2(C)[C@H]3C[C@H]4C(C(C)C)=C[C@]3(CC[C@H]21)[C@H]1[C@@H]4[C@@H](O)CC[C@@H]1O,1.9,48 µM,> 100 µM,> 100 µM,93 µM,> 100 µM,64 µM,> 100 µM,> 64 µM,–
COC(=O)[C@]12C=CC(=O)[C@H]1[C@@]13C=C(C(C)C)[C@@H]2C[C@@H]1[C@@]1(C)CCC[C@@](C)(C(=O)OC)[C@@H]1CC3,1.2,3.1 µM,> 25 µM,13 µM,3.8 µM,> 13 µM,3.9 µM,25 µM,3.2 µM,1.2
COC(=O)[C@]1(C)CCC[C@]2(C)[C@H]3C[C@H]4C(C(C)C)=C[C@]3(CC[C@H]21)[C@@H]1C(=O)CC[C@H](OC(C)=O)[C@@H]14,–,> 100 µM,> 100 µM,> 100 µM,> 100 µM,> 100 µM,> 100 µM,> 100 µM,> 100 µM,–
COC(=O)[C@]1(C)CCC[C@]2(C)[C@H]3C[C@H]4C(C(C)C)=C[C@]3(CC[C@H]21)[C@@H]1C(=O)CC[C@H](O)[C@@H]14,–,> 100 µM,> 100 µM,> 100 µM,> 100 µM,> 100 µM,> 100 µM,> 100 µM,> 100 µM,–
COC(=O)[C@]1(C)CCC[C@]2(C)[C@H]3C[C@H]4C(C(C)C)=C[C@]3(CC[C@H]21)[C@@H]1C(=O)CC[C@H](OCCC#N)[C@@H]14,–,> 100 µM,> 52 µM,31 µM,> 100 µM,> 31 µM,68 µM,52 µM,34 µM,2
COC(=O)[C@]1(C)CCC[C@]2(C)[C@H]3C[C@H]4C(C(C)C)=C[C@]3(CC[C@H]21)[C@@H]1C(=O)CCC2(OCCO2)[C@@H]14,1.3,27 µM,> 27 µM,24 µM,34 µM,> 24 µM,26 µM,27 µM,> 26 µM,–
COC(=O)[C@]1(C)CCC[C@]2(C)[C@H]3C[C@@H]4[C@H]5[C@@H]6CCC(=O)[C@H]5[C@@]3(CC[C@H]21)CC4(C(C)C)O6,–,> 100 µM,> 100 µM,> 100 µM,> 100 µM,> 100 µM,> 100 µM,> 100 µM,> 100 µM,–
CC(C)C1=C[C@@]23CC[C@@H]4[C@](C)(CCC[C@@]4(C)C(=O)O)[C@H]2C[C@@H]1[C@H]1C(=O)C=CC(=O)[C@H]13,1,32 µM,> 20 µM,30 µM,33 µM,> 30 µM,27 µM,20 µM,> 27 µM,–
CC(C)C1=C[C@@]23CC[C@H]4[C@](C)(CO)CCC[C@]4(C)[C@H]2C[C@@H]1[C@@H]1[C@H]3[C@@H](O)CC[C@@H]1O,–,> 11 µM,> 31 µM,29 µM,11 µM,> 29 µM,33 µM,31 µM,32 µM,1
COC(=O)[C@]1(C)CCC[C@]2(C)[C@H]3C[C@@H]4[C@@H]5[C@H]6[C@H](OC(C)=O)CC[C@@H]5OC4(C(C)C)C[C@]63CC[C@H]21,1.1,3.2 µM,> 10 µM,12 µM,3.5 µM,> 12 µM,5 µM,10 µM,> 5 µM,–
CC(C)C1=C[C@@]23CC[C@H]4[C@](C)(COC(=O)/C=C/c5ccccc5)CCC[C@]4(C)[C@H]2C[C@@H]1[C@@H]1[C@H]3[C@@H](OC(=O)/C=C/c2ccccc2)CC[C@@H]1OC(=O)/C=C/c1ccccc1,1.1,31 µM,> 46 µM,> 100 µM,35 µM,> 100 µM,33 µM,46 µM,31 µM,1.1
COC(=O)[C@]1(C)CCC[C@]2(C)[C@H]3C[C@H]4C(C(C)C)=C[C@]3(CC[C@H]21)[C@H]1[C@@H]4[C@@H](OC(=O)c2cccnc2)CC[C@@H]1OC(=O)c1cccnc1,1.1,29 µM,> 11 µM,8.5 µM,32 µM,> 8.5 µM,4.9 µM,11 µM,> 4.9 µM,–
COC(=O)[C@]1(C)CCC[C@]2(C)[C@H]3C[C@H]4C(C(C)C)=C[C@]3(CC[C@H]21)[C@@H]1/C(=N/OC(C)=O)CC[C@H](OC(C)=O)[C@@H]14,–,> 4.8 µM,> 2.8 µM,2.5 µM,4.8 µM,> 2.5 µM,3.3 µM,2.8 µM,3.1 µM,1.1
COC(=O)[C@]1(C)CCC[C@]2(C)[C@H]3C[C@H]4C(C(C)C)=C[C@]3(CC[C@H]21)[C@@H]1/C(=N/O)CC[C@H](O)[C@@H]14,1.1,3.2 µM,> 1.2 µM,1.2 µM,3.5 µM,> 1.2 µM,1.6 µM,1.2 µM,> 1.6 µM,–
COC(=O)[C@H]1[C@@H](C(=O)OC)[C@@]23C=C(C(C)C)[C@@H]1C[C@@H]2[C@@]1(C)CCC[C@@](C)(C(=O)OC)[C@@H]1CC3,2.5,3.8 µM,–,–,9.4 µM,–,7.6 µM,–,> 7.6 µM,–
